From publication PMC6099957, “Mouse β-Defensin 3, A Defensin Inhibitor of Both Its Endogenous and Exogenous Potassium Channels” (Molecules : A Journal of Synthetic Chemistry and Natural …, 2018)
Read-outs that look alike come from different tables or passages of the source. No end group written: not given here.

Columns and labels:
[1] = test system: Kv1.3; conditions: read-out: IC50 as Kv1.3 inhibitor; cited from earlier work
Description: Here, the Kv1.3 channel-sensitive hBD2 was used as the molecular template to search potential mouse β-defensin from the biological databases. […] Besides the sequence similarity, the distribution of six cysteine amino acid residues was also identical. In order to better understand the structural feature of mBD3, its structure was modeled by the tem ...

[2] = test system: mouse Kv1.1 channel; assay: Whole-cell patch clamp, mouse Kv1.1 channel in HEK293 cells; assay type: cell-based; conditions: 1 μM rmBD3, mean ± SE, at least three times, SEM
Protocol: (§1) Human embryonic kidney 293 (HEK293) cells were cultured Dulbecco’s modified Eagle medium (Thermo Fisher Scientific, Pittsburgh, PA. USA) with 10% heat-inactivated fetal calf serum supplemented with penicillin (100 units/mL) and streptomycin (100 μg/mL) in a humidified 5% CO2 incubator at 37 °C. Plasmids were transfected into HEK293 cells using the TurboFect in vitro Transfection Reagent (Thermo Fisher Scientific, Pittsburgh, PA, USA). Potassium currents were recorded after transfection for 1 to 3 days and positive cells were selected based on the presence of GFP fluorescence.
(§2) Electrophysiological experiments were carried out at room temperature using the whole-cell recording mode by EPC10 patch clamp amplifier (Heka Elektronik, Lambrecht, Germany), which was controlled by Patchmaster software version 2 × 65 (Heka Elektronik, Holliston, MA, USA). For all the channels, HEK293 cells were bathed with mammalian Ringer’s solution contained 5 mM KCl, 140 mM NaCl, 10 mM HEPES, 2 mM CaCl2, 1 mM MgCl2 and 10 mM D-glucose (pH adjusted to 7.4 with NaOH). When rmBD3 was applied, 0.01% BSA was added to the Ringer’s solution. A multichannel microperfusion system MPS-2 (INBIO Inc., Wuhan, China) was used to exchange the external recording bath solution. […] The currents through Kv channels and KCNQ1/KCNE1 channel were recorded according to previously published references. […]

[3] = test system: mouse Kv1.2 channel; assay: Whole-cell patch clamp, mouse Kv1.2 channel in HEK293 cells; assay type: cell-based; conditions: 1 μM rmBD3, mean ± SE, at least three times, SEM
Protocol: as §1, §2

[4] = test system: mouse Kv1.3 channel; assay: Whole-cell patch clamp, mouse Kv1.3 channel in HEK293 cells; assay type: cell-based; conditions: 1 μM rmBD3, mean ± SE, at least three times, SEM
Protocol: as §1, §2

[5] = test system: mouse Kv1.6 channel; assay: Whole-cell patch clamp, mouse Kv1.6 channel in HEK293 cells; assay type: cell-based; conditions: mean ± SE, SEM; for inhibition of mouse Kv1.6 channel currents: at least three times
Protocol: as §1
(§3) Electrophysiological experiments were carried out at room temperature using the whole-cell recording mode by EPC10 patch clamp amplifier (Heka Elektronik, Lambrecht, Germany), which was controlled by Patchmaster software version 2 × 65 (Heka Elektronik, Holliston, MA, USA). For all the channels, HEK293 cells were bathed with mammalian Ringer’s solution contained 5 mM KCl, 140 mM NaCl, 10 mM HEPES, 2 mM CaCl2, 1 mM MgCl2 and 10 mM D-glucose (pH adjusted to 7.4 with NaOH). When rmBD3 was applied, 0.01% BSA was added to the Ringer’s solution. A multichannel microperfusion system MPS-2 (INBIO Inc., Wuhan, China) was used to exchange the external recording bath solution. The internal pipette solution contains 140 mM KCl, 1 mM MgCl2, 1 mM EGTA, 1 mM Na2ATP and 5 mM HEPES (pH adjusted to 7.4 with NaOH). All channel currents were elicited by depolarizing voltage steps of 200 ms from the holding potential −80 mV to +50 mV. Currents were typically digitized at 20 kHz and filtered at 2.9 kHz (Bessel). Electrode resistances were 3.0–5.0 MΩ, and the series resistance was usually compensated by 85%. The currents through Kv channels and KCNQ1/KCNE1 channel were recorded according to previously published references.
(§4) The IC50 values were obtained by fitting a modified Hill equation to the data with the formula: IrmBD3/Icontrol = 1/(1 + [rmBD3]/IC50), where [rmBD3] is the concentration of rmBD3, IrmBD3 and Icontrol are the peak currents in the presence and absence of rmBD3 at four different concentrations. The conductance of mouse Kv1.6 channel was calculated by the formula: G = Ipeak/(V − EKv1.6), where Ipeak is the peak current, EKv1.6 is the reversal potential of the Kv1.6 channel. The conductance-voltage (G-V) curves were generated by the measured peak currents and fitted with a V50-V equation using the formula: G/Gmax = 1/(1 + exp [(V − V50)/k]), where G is the conductance of the channels, Gmax is the maximal channel conductance, V is the membrane voltage, V50 is the voltage of half-maximal activation, and k is the slope factor. The data were presented as the means ± SE of at least three times repeated experiments. Sigmaplot 12.5 and GraphPad Prism 5 software were used for analysis.

[6] = test system: human Kv1.1 channel; assay: Whole-cell patch clamp, human Kv1.1 channel in HEK293 cells; assay type: cell-based; conditions: 1 μM rmBD3, mean ± SE, at least three times, SEM
Description: (§5) The pRc/CMV-hKv1.3 vector was kindly provided by Prof. Stephan Grissmer (University of Ulm, Ulm, Germany) and Prof. Olaf Pongs (Zentrum für Molekulare Neurobiologie der University Hamburg, Hamburg, Germany). The cDNAs encoding human Kv1.1, Kv1.2, hERG and KCNQ1/KCNE1 channels were subcloned into the vector pIRES2-EGFP (TaKaRa Clontech, Mountain View, CA, USA) for coexpression with the green fluorescent protein (GFP), and the other channels were subcloned into vector pcDNA 3.1(+) (TaKaRa Clontech, Mountain View, CA, USA) for coexpression with GFP. The constructs were verified by DNA sequencing (Sangon Biotech, Shanghai, China). The mutants Asp400, Asp401, Val402, Asp403, Asp411, Met428 and Tyr429 on the pore region of wild type mouse Kv1.6 channel plasmids were mutated into Ala with QuikChange Site-Directed Mutagenesis Kit (Agilent Stratagene, Santa Clara, CA, USA). All the mutants were verified by DNA sequencing before being used (Sangon Biotech, China).
as §1, with “Plasmids were transfected into HEK293 cells using the TurboFect in vitro Transfection Reagent (Thermo Fisher Scientific, Pittsburgh, PA, USA).” left out, “fluorescence. […]” for “fluorescence.”

[7] = test system: human Kv1.2 channel; assay: Whole-cell patch clamp, human Kv1.2 channel in HEK293 cells; assay type: cell-based; conditions: 1 μM rmBD3, mean ± SE, at least three times, SEM
Description: as §5
as §1, with “Plasmids were transfected into HEK293 cells using the TurboFect in vitro Transfection Reagent (Thermo Fisher Scientific, Pittsburgh, PA, USA).” left out, “fluorescence. […]” for “fluorescence.”

[8] = test system: human Kv1.3 channel; assay: Whole-cell patch clamp, human Kv1.3 channel in HEK293 cells; assay type: cell-based; conditions: 1 μM rmBD3, mean ± SE, at least three times, SEM
Description: as §5
as §1, with “Plasmids were transfected into HEK293 cells using the TurboFect in vitro Transfection Reagent (Thermo Fisher Scientific, Pittsburgh, PA, USA).” left out, “fluorescence. […]” for “fluorescence.”

[9] = test system: human Kv1.6 channel; assay: Whole-cell patch clamp, human Kv1.6 channel in HEK293 cells; assay type: cell-based; conditions: 1 μM rmBD3, mean ± SE, at least three times, SEM
Protocol: as §1, §2

[10] = test system: human Kv3.2 channel; assay: Whole-cell patch clamp, human Kv3.2 channel in HEK293 cells; assay type: cell-based; conditions: 1 μM rmBD3, mean ± SE, at least three times, SEM
Protocol: as §1, §2

[11] = test system: human KCNQ1/KCNE1 channel; assay type: cell-based; conditions: HEK293 cells, mean ± SE, SEM; for inhibition of human KCNQ1/KCNE1 channel currents: at least three times
Description: as §5, §1
as §3, with “Electrode resistances were 3.0–5.0 MΩ, and the series resistance was usually compensated by 85%.” left out
as §4, with “The data were presented as the means ± SE of at least three times repeated experiments. Sigmaplot 12.5 and GraphPad Prism 5 software were used for analysis.” left out

[12] = test system: human KCNQ1 channel; assay type: cell-based; conditions: 1 μM rmBD3; HEK293 cells; mean ± SE, at least three times; SEM
Protocol: as §1, §2

[13] = test system: hERG channel; assay type: cell-based, human; conditions: 1 μM rmBD3; HEK293 cells; mean ± SE, at least three times; SEM
Description: as §5
as §1, with “Plasmids were transfected into HEK293 cells using the TurboFect in vitro Transfection Reagent (Thermo Fisher Scientific, Pittsburgh, PA, USA).” left out, “fluorescence. […]” for “fluorescence.”

[14] = test system: Kv1.6-D400A channel; assay: Patch clamp, mouse Kv1.6 pore region mutant D400A; assay type: cell-based; conditions: 1 μM rmBD3; HEK293 cells; mean ± SE, at least three times; SEM
Description: as §5
as §1, with “Plasmids were transfected into HEK293 cells using the TurboFect in vitro Transfection Reagent (Thermo Fisher Scientific, Pittsburgh, PA, USA).” left out, “fluorescence. […]” for “fluorescence.”

[15] = test system: Kv1.6-D401A channel; assay: Patch clamp, mouse Kv1.6 pore region mutant D401A; assay type: cell-based; conditions: 1 μM rmBD3; HEK293 cells; mean ± SE, at least three times; SEM
Description: as §5
as §1, with “Plasmids were transfected into HEK293 cells using the TurboFect in vitro Transfection Reagent (Thermo Fisher Scientific, Pittsburgh, PA, USA).” left out, “fluorescence. […]” for “fluorescence.”

[16] = test system: Kv1.6-V402A channel; assay: Patch clamp, mouse Kv1.6 pore region mutant V402A; assay type: cell-based; conditions: 1 μM rmBD3; HEK293 cells; mean ± SE, at least three times; SEM
Description: as §5
as §1, with “Plasmids were transfected into HEK293 cells using the TurboFect in vitro Transfection Reagent (Thermo Fisher Scientific, Pittsburgh, PA, USA).” left out, “fluorescence. […]” for “fluorescence.”

[17] = test system: Kv1.6-D403A channel; assay: Patch clamp, mouse Kv1.6 pore region mutant D403A; assay type: cell-based; conditions: 1 μM rmBD3; HEK293 cells; mean ± SE, at least three times; SEM
Description: as §5
as §1, with “Plasmids were transfected into HEK293 cells using the TurboFect in vitro Transfection Reagent (Thermo Fisher Scientific, Pittsburgh, PA, USA).” left out, “fluorescence. […]” for “fluorescence.”

[18] = test system: Kv1.6-D411A channel; assay: Patch clamp, mouse Kv1.6 pore region mutant D411A; assay type: cell-based; conditions: 1 μM rmBD3; HEK293 cells; mean ± SE, at least three times; SEM
Description: as §5
as §1, with “Plasmids were transfected into HEK293 cells using the TurboFect in vitro Transfection Reagent (Thermo Fisher Scientific, Pittsburgh, PA, USA).” left out, “fluorescence. […]” for “fluorescence.”

[19] = test system: Kv1.6-M428A channel; assay: Patch clamp, mouse Kv1.6 pore region mutant M428A; assay type: cell-based; conditions: 1 μM rmBD3; HEK293 cells; mean ± SE, at least three times; SEM
Description: as §5
as §1, with “Plasmids were transfected into HEK293 cells using the TurboFect in vitro Transfection Reagent (Thermo Fisher Scientific, Pittsburgh, PA, USA).” left out, “fluorescence. […]” for “fluorescence.”

[20] = test system: Kv1.6-Y429A channel; assay: Patch clamp, mouse Kv1.6 pore region mutant Y429A; assay type: cell-based; conditions: 1 μM rmBD3; HEK293 cells; mean ± SE, at least three times; SEM
Description: as §5
as §1, with “Plasmids were transfected into HEK293 cells using the TurboFect in vitro Transfection Reagent (Thermo Fisher Scientific, Pittsburgh, PA, USA).” left out, “fluorescence. […]” for “fluorescence.”

Substance: human β-defensin 2 [hBD2]
- IC50 [1]: 0.022 nM

Substance: mouse β-defensin 3 (KKINNPVSCLRKGGRCWNRCIGNTRQIGSCGVPFLKCCKRK; ends and bridges not checked; cysteine pairing not given here; UniProt Q9WTL0 23-63, looked up) [rmBD3, Recombinant mouse β-defensin 3 expressed in E. coli, cleaved from His-tag fusion by Enterokinase, HPLC purified]
- inhibition of mouse Kv1.1 potassium currents [2]: 19.0 ± 2.2%
- inhibition of mouse Kv1.2 potassium currents [3]: 4.9 ± 0.6%
- inhibition of mouse Kv1.3 potassium currents [4]: 14.0 ± 3.7%
- inhibition of mouse Kv1.6 channel currents ([5]; 1 nM rmBD3, HEK293 cells): 18.1 ± 2.4%
- inhibition of mouse Kv1.6 channel currents ([5]; 10 nM rmBD3, HEK293 cells): 26.4 ± 1.8%
- inhibition of mouse Kv1.6 channel currents ([5]; 1 μM rmBD3, HEK293 cells, whole-cell patch clamp): 56.1 ± 4.2%
- inhibition of mouse Kv1.6 channel currents ([5]; 10 μM rmBD3, HEK293 cells): 73.1 ± 2.2%
- IC50 ([5]; Hill equation fitting, four concentrations, HEK293 cells, read-out: IC50, mouse Kv1.6 channel currents): 600 ± 400 nM
- k (slope factor) of activation G-V curve of Kv1.6 channel in the presence of rmBD3 ([5]; after treatment with 1 μM rmBD3 (control 6.8 ± 0.6), Boltzmann fitting): 6.5 ± 0.4
- V50 of activation G-V curve of Kv1.6 channel in the presence of rmBD3 ([5]; after treatment with 1 μM rmBD3 (control −23.8 ± 0.7 mV), Boltzmann fitting): −18.8 ± 0.5 mV
- inhibition of human Kv1.1 potassium currents [6]: 8.8 ± 3.0%
- inhibition of human Kv1.2 potassium currents [7]: 9.3 ± 0.8%
- inhibition of human Kv1.3 potassium currents [8]: 14.6 ± 0.9%
- inhibition of human Kv1.6 potassium currents [9]: 31.2 ± 3.6%
- inhibition of human Kv3.2 potassium currents [10]: 11.6 ± 1.3%
- inhibition of human KCNQ1/KCNE1 channel currents ([11]; 10 nM rmBD3): 21.8 ± 3.6%
- inhibition of human KCNQ1/KCNE1 channel currents ([11]; 100 nM rmBD3): 32.4 ± 1.8%
- inhibition of human KCNQ1/KCNE1 channel currents ([11]; 1 μM rmBD3): 46.3 ± 4.2%
- inhibition of human KCNQ1/KCNE1 channel currents ([11]; 10 μM rmBD3): 68.8 ± 3.8%
- IC50 ([11]; Hill equation fitting, four concentrations, read-out: IC50, human KCNQ1/KCNE1 channel currents): 1200 ± 800 nM
- inhibition of human KCNQ1 channel currents [12]: 26.1 ± 4.8%
- inhibition of hERG potassium currents [13]: 14.7 ± 3.9%
- inhibition of mutant Kv1.6-D400A channel [14]: 54.9 ± 1.9%
- inhibition of mutant Kv1.6-D401A channel [15]: 20.7 ± 4.5%
- inhibition of mutant Kv1.6-V402A channel [16]: 21.8 ± 4.5%
- inhibition of mutant Kv1.6-D403A channel [17]: 35.6 ± 1.0%
- inhibition of mutant Kv1.6-D411A channel [18]: 43.2 ± 3.5%
- inhibition of mutant Kv1.6-M428A channel [19]: 39.3 ± 1.8%
- inhibition of mutant Kv1.6-Y429A channel [20]: 36.7 ± 2.0%
